Source: US7820817B2, “Modulators of muscarinic receptors” (Vertex Pharmaceuticals Incorporated, priority 2004, dated 2010)

The molecules below were run on at least one muscarinic receptor, M1, M2, M3, M4 (assay: Muscarinic modulation activity (Table 3)). Conditions: concentration at which modulation of at least one muscarinic receptor, M1, M2, M3, M4, was exhibited; CHO cells.
Assay type: cell-based
Parameters: key: +++: exhibited muscarinic modulation activity for at least one muscarinic receptor, M1, M2, M3, M4, at a concentration of less than 5 μM; ++: exhibited muscarinic modulation activity for at least one muscarinic receptor, M1, M2, M3, M4, at a concentration of between 30 μM and 5 μM; +: exhibited muscarinic modulation activity for at least one muscarinic receptor, M1, M2, M3, M4, at a concentration of greater than 30 μM; −: were not assayed or did not exhibit muscarinic modulation activity for at least one muscarinic receptor, M1, M2, M3, M4, at the concentration at which the assay was performed
Method: CHO cells expressing muscarinic receptors (M1 to M5) are grown as monolayers in tissue culture flasks at 37° C. in a humidified atmosphere containing 5% CO2 and passaged every 3-5 days. The growth media is Dulbecco's modified eagles medium (DMEM, Gibco Cat#12430-054), containing 25 mM Hepes and supplemented with Fetal Bovine Serum (Hyclone, cat#SH30071.03), 0.1 mM of MEM non-essential amino acids (GIBCO, Cat#11140-050), 1 mM MEM Sodium Pyruvate (GIBCO Cat#11360-070) and 100 units/ml of Penicillin G and 100 μg/ml of Streptomycin (GIBCO Cat#15140-122). The recombinant muscarinic receptor cell lines are grown under antibiotic pressure with media containing 25 μg/ml zeocin and 500 μg/ml G418 (M1-CHO), 4 μg/ml puromycin, 50 μg/ml zeocin and 2.5 μg/ml blasticidin (M2 and M4-CHO) or 50 μg/ml zeocin and 4 μg/ml puromycin (M3 and M5-CHO).
Cells are harvested at 80-90% confluence using Versene (GIBCO Cat#15040-066), collected by centrifugation and seeded 18-24 hrs prior to running the calcium assay at a density of 5,000-10,000 cells/well in […], clear-bottomed 384-well plates (BD Biocoat, poly-D-lysine, Cat#356663). The day of the experiment, the cells are washed with a plate washer (Bioteck Instruments, ELX 405) using bath1 buffer (140-mM NaCl, 4.5-mM KCl, 2-mM CaCl2, 1-mM MgCl2, 10-mM Hepes-Na, 10-mM Glucose, pH 7.4, with NaOH) containing 1 mM Probenecid. Next, the calcium dye Fluo-3 (25 μl/well of Fluo-3 AM at 4 μM, Molecular Probes F-1241, in Bath 1 buffer containing 1 mM Probenecid) is added to the 25 μl of Bath 1 remaining in each well after the plate wash and the dye is loaded at 37° C. in the tissue culture incubator for 60-90 min. The fluorescent dye is removed using the plate washer with Bath 1 containing 1 mM Probenecid, leaving 25 μl/well of this solution after the wash. Alternatively, cells can be loaded with the calcium indicator from Molecular Devices (Calcium 3 Assay Reagents, Cat #R7181) adding 5 μl of a 5× solution dye in Bath 1 containing 1 mM Probenecid (10 ml per dye flask cat#R7182 to generate a solution […]) to 20 μl of the same buffer. After loading for 60 min. the experiment can be run without having to remove the dye.
Compounds are prepared at a 2× fold concentration in a 96-well plate (round bottom, Costar Corning cat#3656), by reconstituting the pre-spotted compounds in bath 1 containing 1 mM probenecid. The final concentration DMSO is 0.5%, and the amount of DMSO is normalized across the assay plate. To determine an agonist action of the compounds on muscarinic receptors, the reconstituted compounds are added (25 μl compound/well) to the cell assay plate (containing 25 μl/well) using the multi-channel robotic system of the FLIPR 3 Instrument (Molecular Devices, Sunnyvale, Calif.). To determine a functional inhibitory action of the compounds on muscarinic receptors, the reconstituted compounds are added (25 μl compound/well) to the assay plate and pre-incubated for 15 min prior to adding 25 μl of Carbachol at 3× the EC80 for each muscarinic subtype. Alternatively, the compounds can be co-applied simultaneously with the agonist. In both assay modes, the fluorescence is recorded for 60 sec (excitation wavelength is […] and emission wavelength 540 nm) using the FLIPR 3 instrument.
The potency, efficacy and selectivity of the muscarinic compounds were evaluated by screening the compound activity across the whole family (M1 to M5 cells).
CHO cells expressing muscarinic receptors (M1 to M5) and containing a gene reporter system β-Lactamase) with transcriptional control mediated by calcium release (NFAT activation). See Zlokarnik, G; Negulescu, P. A.; Knapp, T. E.; Mere, L; Burres, N; Feng, L; Whitney, M; Roemer, K; Tsien, R. Y. Quantitation of transcription and clonal selection of single living cells with β-lactamase as reporter. Science, 1998 Jan. 2, 279(5347):84-8. The cells are grown as monolayers in tissue culture flasks at 37° C. in a humidified atmosphere containing 5% CO2 and passaged every 3-5 days. […]

SMILES | ACTIVITY (muscarinic modulation activity)
c1ccc2c(c1)nnn2C1CCN(C2CC3CCC(C3)C2)CC1 (stereo not drawn) [Compound 9, 1-[1-(3-bicyclo[3.2.1]octyl)-4-piperidyl]-1H-benzotriazole] | −
O=[N+]([O-])c1cccnc1N1CCN(C2CC3CCC2C3)CC1 (stereo not drawn) [Compound 5, 1-(3-nitro-2-pyridyl)-4-norbornan-2-yl-piperazine] | + (exhibited muscarinic modulation activity for at least one muscarinic receptor, M1, M2, M3, M4, at a concentration of greater than 30 μM)
CCOC(=O)N1C2CCC1CC(CN1CCN(c3ncccc3C#N)CC1)C2 (stereo not drawn) [Compound 68, 3-[[4-(3-cyano-2-pyridyl)piperazin-1-yl]methyl]-8-azabicyclo[3.2.1]octane-8-carboxylic acid ethyl ester] | +++ (exhibited muscarinic modulation activity for at least one muscarinic receptor, M1, M2, M3, M4, at a concentration of less than 5 μM)
CCOC(=O)N1C2CCC1CC(N1CCN(c3ncc(-c4ccccc4)cc3C#N)CC1)C2 (stereo not drawn) [Compound 33, 3-[4-(3-cyano-5-phenyl-2-pyridyl)piperazin-1-yl]-8-azabicyclo[3.2.1]octane-8-carboxylic acid ethyl ester] | + (exhibited muscarinic modulation activity for at least one muscarinic receptor, M1, M2, M3, M4, at a concentration of greater than 30 μM)
CCOC(=O)N1C2CCC1CC(N1CCN(c3ncccc3C#N)CC1)C2 (stereo not drawn) [Compound 12, 3-[4-(3-cyano-2-pyridyl)piperazin-1-yl]-8-azabicyclo[3.2.1]octane-8-carboxylic acid ethyl ester] | +++ (exhibited muscarinic modulation activity for at least one muscarinic receptor, M1, M2, M3, M4, at a concentration of less than 5 μM)
NS(=O)(=O)c1cnccc1N1CCN(CC2CC3CCC2C3)CC1 (stereo not drawn) [Compound 55, 4-[4-(norbornan-2-ylmethyl)piperazin-1-yl]pyridine-3-sulfonamide] | ++ (exhibited muscarinic modulation activity for at least one muscarinic receptor, M1, M2, M3, M4, at a concentration of between 30 μM and 5 μM)
Cc1cccnc1N1CCN(CC2CC3C=CC2C3)CC1 (stereo not drawn) [Compound 20, 2-[4-(5-bicyclo[2.2.1]hept-2-enylmethyl)piperazin-1-yl]-3-methyl-pyridine] | +++ (exhibited muscarinic modulation activity for at least one muscarinic receptor, M1, M2, M3, M4, at a concentration of less than 5 μM)
N#Cc1nccnc1N1CCN(C2CC3CCC2C3)CC1 (stereo not drawn) [Compound 43, 3-(4-norbornan-2-ylpiperazin-1-yl)pyrazine-2-carbonitrile] | −
Cc1cccc(N2CCN(C3CC4CCC3C4)CC2)n1 (stereo not drawn) [Compound 77, 1-(6-methyl-2-pyridyl)-4-norbornan-2-yl-piperazine] | −
FC(F)(F)c1cccnc1N1CCN(CC2CC3C=CC2C3)CC1 (stereo not drawn) [Compound 69, 1-(5-bicyclo[2.2.1]hept-2-enylmethyl)-4-[3-(trifluoromethyl)-2-pyridyl]-piperazine] | +++ (exhibited muscarinic modulation activity for at least one muscarinic receptor, M1, M2, M3, M4, at a concentration of less than 5 μM)
N#Cc1nccnc1N1CCN(CC2CC3C=CC2C3)CC1 (stereo not drawn) [Compound 70, 3-[4-(5-bicyclo[2.2.1]hept-2-enylmethyl)piperazin-1-yl]pyrazine-2-carbonitrile] | +++ (exhibited muscarinic modulation activity for at least one muscarinic receptor, M1, M2, M3, M4, at a concentration of less than 5 μM)
NC(=O)c1cccnc1N1CCN(CC2CC3C=CC2C3)CC1 (stereo not drawn) [Compound 6, 2-[4-(5-bicyclo[2.2.1]hept-2-enylmethyl)piperazin-1-yl]nicotinamide] | −
N#Cc1ccc(N2CCN(CC3CC4C=CC3C4)CC2)nc1 (stereo not drawn) [Compound 13, 6-[4-(5-bicyclo[2.2.1]hept-2-enylmethyl)piperazin-1-yl]nicotinonitrile] | +++ (exhibited muscarinic modulation activity for at least one muscarinic receptor, M1, M2, M3, M4, at a concentration of less than 5 μM)
c1cnc(N2CCN(C3CC4CCC3C4)CC2)nc1 (stereo not drawn) [Compound 71, 2-(4-norbornan-2-ylpiperazin-1-yl)pyrimidine] | ++ (exhibited muscarinic modulation activity for at least one muscarinic receptor, M1, M2, M3, M4, at a concentration of between 30 μM and 5 μM)
FC(F)(F)c1ccc(N2CCN(CC3CC4C=CC3C4)CC2)nc1 (stereo not drawn) [Compound 47, 1-(5-bicyclo[2.2.1]hept-2-enylmethyl)-4-[5-(trifluoromethyl)-2-pyridyl]-piperazine] | + (exhibited muscarinic modulation activity for at least one muscarinic receptor, M1, M2, M3, M4, at a concentration of greater than 30 μM)
N#Cc1cccnc1N1CCN(C2CC3CCC(C3)C2)CC1 (stereo not drawn) [Compound 27, 2-[4-(3-bicyclo[3.2.1]octyl)piperazin-1-yl]nicotinonitrile] | + (exhibited muscarinic modulation activity for at least one muscarinic receptor, M1, M2, M3, M4, at a concentration of greater than 30 μM)
CCOC(=O)N1C2CCC1CC(N1CCN(c3ccc(C(F)(F)F)cn3)CC1)C2 (stereo not drawn) [Compound 28, 3-[4-[5-(trifluoromethyl)-2-pyridyl]piperazin-1-yl]-8-azabicyclo[3.2.1]octane-8-carboxylic acid ethyl ester] | +++ (exhibited muscarinic modulation activity for at least one muscarinic receptor, M1, M2, M3, M4, at a concentration of less than 5 μM)
N#Cc1cccnc1N1CCN(CC2CCC3CCC2C3)CC1 (stereo not drawn) [Compound 64, 2-[4-(4-bicyclo[3.2.1]octylmethyl)piperazin-1-yl]nicotinonitrile] | + (exhibited muscarinic modulation activity for at least one muscarinic receptor, M1, M2, M3, M4, at a concentration of greater than 30 μM)
c1cc(N2CCN(C3CC4CCC3C4)CC2)ccn1 (stereo not drawn) [Compound 18, 1-norbornan-2-yl-4-(4-pyridyl)piperazine] | ++ (exhibited muscarinic modulation activity for at least one muscarinic receptor, M1, M2, M3, M4, at a concentration of between 30 μM and 5 μM)
N#Cc1cccnc1C1CCN(CC2CC3C=CC2C3)CC1 (stereo not drawn) [Compound 54, 2-[1-(5-bicyclo[2.2.1]hept-2-enylmethyl)-4-piperidyl]nicotinonitrile] | +++ (exhibited muscarinic modulation activity for at least one muscarinic receptor, M1, M2, M3, M4, at a concentration of less than 5 μM)
N#Cc1cccnc1N1CCN(CC2CC3C=CC2C3)CC1 (stereo not drawn) [Compound 42, 2-[4-(5-bicyclo[2.2.1]hept-2-enylmethyl)piperazin-1-yl]nicotinonitrile] | +++ (exhibited muscarinic modulation activity for at least one muscarinic receptor, M1, M2, M3, M4, at a concentration of less than 5 μM)
